Laboratory results published in US4393225A, “AI-77 Compounds and pharmaceutically acceptable salts thereof” (Asahi Kasei Kogyo Kabushiki Kaisha, priority 1979, dated 1983).

Test system: ulcer
Assay: Anti-ulcer test (restraint and water immersion ulcer in rats, i.p.)
Type: in vivo, Male Wistar rats
Settings: Rattus norvegicus, ip, read-out: % Inhibition of Ulcer
Procedure, shortened: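 Male Wistar rats (~150 g), fasted 24 h, dosed i.p. with compound in physiological saline; 1 h later restrained and immersed to xiphisternum in 21 °C water for 6 h. Stomachs examined microscopically, ulcers scored 0–3, and percent inhibition calculated.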

Structure (SMILES) | inhibition in vivo at 25 mg/kg [%] | inhibition in vivo at 50 mg/kg [%]
CCNC(CC(N)=O)C(O)C(OC)C(=O)NC(CC(C)C)C1Cc2cccc(OCC)c2C(=O)O1 (centres unmarked) [VII-16-1] | 56 | 
CC(C)CC(NC(=O)C(O)C(O)C(CC(N)=O)NC(=O)C(C)C)C1Cc2cccc(O)c2C(=O)O1 (centres unmarked) [VII-28-2] | 78 | 
CCC(=O)OC(C(=O)NC(CC(C)C)C1Cc2cccc(O)c2C(=O)O1)C(O)C(CC(=O)NC)NC(C)=O (centres unmarked) [VII-29-1] | 66 | 
CC(C)CC(NC(=NC(C)C)C(O)C(O)C(N)CC(=O)O)C1Cc2cccc(O)c2C(=O)O1 (centres unmarked) [Vb-1-41] |  | 89

Same assay, conditions: Rattus norvegicus, ip; 25 mg/kg i.p.; read-out: % Inhibition of Ulcer

Structure (SMILES) | inhibition in vivo at 25 mg/kg [%]
CCCCOc1cccc2c1C(=O)OC(C(CC(C)C)NC(=O)C(OC)C(O)C(CC(=O)NCC)NCC)C2 (centres unmarked) [VII-16-4] | 44
CCCCOC(C(=O)NC(CC(C)C)C1Cc2cccc(O)c2C(=O)O1)C(O)C(CC(N)=O)NCC (centres unmarked) [VII-17-1] | 78
CCCCCCCCCCCCCCCCCCNC(CC(N)=O)C(O)C(OCCCC)C(=O)NC(CC(C)C)C1Cc2cccc(O)c2C(=O)O1 (centres unmarked) [VII-17-2] | 56
CCNC(CC(N)=O)C(O)C(OC)C(=O)NC(CC(C)C)C1Cc2cccc(O)c2C(=O)O1 (centres unmarked) [VII-17-3] | 89
CCCCOC(C(=O)NC(CC(C)C)C1Cc2cccc(OC(C)=O)c2C(=O)O1)C(O)C(CC(N)=O)NCC (centres unmarked) [VII-18-1] | 66
CCNC(CC(N)=O)C(O)C(OC)C(=O)NC(CC(C)C)C1Cc2cccc(OC(=O)C(C)C)c2C(=O)O1 (centres unmarked) [VII-18-3] | 56
CNC(CC(N)=O)C(O)C(O)C(=O)NC(CC(C)C)C1Cc2cccc(O)c2C(=O)O1 (centres unmarked) [VII-19-1] | 100
CNC(CC(N)=O)C(O)C(OC(C)=O)C(=O)NC(CC(C)C)C1Cc2cccc(O)c2C(=O)O1 (centres unmarked) [VII-20-1] | 89
CNC(CC(N)=O)C(O)C(OC(=O)CC(C)C)C(=O)NC(CC(C)C)C1Cc2cccc(O)c2C(=O)O1 (centres unmarked) [VII-20-2] | 66
CNC(CC(N)=O)C(O)C(OC(C)=O)C(=O)NC(CC(C)C)C1Cc2cccc(OC(C)=O)c2C(=O)O1 (centres unmarked) [VII-21-1] | 66
CNC(CC(N)=O)C(O)C(O)C(=O)NC(CC(C)C)C1Cc2cccc(OC(C)=O)c2C(=O)O1 (centres unmarked) [VII-22-1] | 78
CCOc1cccc2c1C(=O)OC(C(CC(C)C)NC(=O)C(O)C(O)C(CC(N)=O)NC)C2 (centres unmarked) [VII-23-1] | 89
CCCCNC(=O)CC(NC)C(O)C(O)C(=O)NC(CC(C)C)C1Cc2cccc(OCC)c2C(=O)O1 (centres unmarked) [VII-23-2] | 66
CNC(CC(N)=O)C(O)C(O)C(=O)NC(CC(C)C)C1Cc2cccc(OC)c2C(=O)O1 (centres unmarked) [VII-23-5] | 89
CCOc1cccc2c1C(=O)OC(C(CC(C)C)NC(=O)C(OC(C)=O)C(O)C(CC(N)=O)NC)C2 (centres unmarked) [VII-24-1] | 66
CCOc1cccc2c1C(=O)OC(C(CC(C)C)NC(=O)C(OC(=O)C(C)C)C(O)C(CC(N)=O)NC)C2 (centres unmarked) [VII-24-2] | 66
CCCCOC(C(=O)NC(CC(C)C)C1Cc2cccc(OC)c2C(=O)O1)C(O)C(CC(N)=O)NC (centres unmarked) [VII-25-1] | 66
CCCCOc1cccc2c1C(=O)OC(C(CC(C)C)NC(=O)C(OCCCC)C(O)C(CC(N)=O)NC)C2 (centres unmarked) [VII-25-3] | 56
CNC(CC(N)=O)C(O)C(OC)C(=O)NC(CC(C)C)C1Cc2cccc(O)c2C(=O)O1 (centres unmarked) [VII-26-1] | 89
CNC(CC(N)=O)C(O)C(OC)C(=O)NC(CC(C)C)C1Cc2cccc(OC(C)=O)c2C(=O)O1 (centres unmarked) [VII-27-1] | 66
CC(=O)NC(CC(N)=O)C(O)C(O)C(=O)NC(CC(C)C)C1Cc2cccc(O)c2C(=O)O1 (centres unmarked) [VII-28-1] | 78
CCCCCCCC(=O)NC(CC(N)=O)C(O)C(O)C(=O)NC(CC(C)C)C1Cc2cccc(O)c2C(=O)O1 (centres unmarked) [VII-28-3] | 66
CCCCCCCCCCCCCCCCCC(=O)NC(CC(=O)NCC)C(O)C(O)C(=O)NC(CC(C)C)C1Cc2cccc(O)c2C(=O)O1 (centres unmarked) [VII-28-4] | 66
CC(=O)NC(CC(N)=O)C(O)C(O)C(=O)NC(CC(C)C)C1Cc2cccc(OC(C)=O)c2C(=O)O1 (centres unmarked) [VII-31-1] | 89
CCCCOc1cccc2c1C(=O)OC(C(CC(C)C)NC(=O)C(O)C(O)C(CC(=O)NCC)NC(C)=O)C2 (centres unmarked) [VII-32-1] | 66
CCC(=O)OC(C(=O)NC(CC(C)C)C1Cc2cccc(OC)c2C(=O)O1)C(O)C(CC(N)=O)NC(C)=O (centres unmarked) [VII-33-1] | 66
CCCCOc1cccc2c1C(=O)OC(C(CC(C)C)NC(=O)C(OC)C(O)C(CC(N)=O)NC(C)=O)C2 (centres unmarked) [VII-34-1] | 66
CCNC(=O)CC(NC(C)=O)C(O)C(OC)C(=O)NC(CC(C)C)C1Cc2cccc(O)c2C(=O)O1 (centres unmarked) [VII-35-1] | 66
COC(C(=O)NC(CC(C)C)C1Cc2cccc(OC(=O)C(C)C)c2C(=O)O1)C(O)C(CC(N)=O)NC(C)=O (centres unmarked) [VII-36-1] | 66

Same assay, conditions: Rattus norvegicus, ip; 50 mg/kg i.p.; read-out: % Inhibition of Ulcer

Structure (SMILES) | inhibition in vivo at 50 mg/kg [%]
CNC(=O)C=CC(O)C(O)C(=O)NC(CC(C)C)C1Cc2cccc(O)c2C(=O)O1 (centres unmarked) [VIII-1-1] | 56
CCCCCNC(=O)C=CC(O)C(O)C(=O)NC(CC(C)C)C1Cc2cccc(O)c2C(=O)O1 (centres unmarked) [VIII-1-2] | 56
CCCCCCCCCCCCCCCCCCNC(=O)C=CC(O)C(O)C(=O)NC(CC(C)C)C1Cc2cccc(O)c2C(=O)O1 (centres unmarked) [VIII-1-3] | 44
CC(C)CC(NC(=O)C(O)C(O)C=CC(=O)NCc1cccc(Cl)c1)C1Cc2cccc(O)c2C(=O)O1 (centres unmarked) [VIII-1-4] | 44
CC(C)CC(NC(=O)C(O)C(O)C=CC(=O)NCC1CCCCC1)C1Cc2cccc(O)c2C(=O)O1 (centres unmarked) [VIII-1-5] | 44
CCCC=Cc1ccc(CN=C(NC(CC(C)C)C2Cc3cccc(O)c3C(=O)O2)C(O)C(O)C(N)CC(=O)O)cc1 (centres unmarked) [Vb-1-40] | 89
Cc1ccc(N=C(NC(CC(C)C)C2Cc3cccc(O)c3C(=O)O2)C(O)C(O)C(N)CC(=O)O)cc1 (centres unmarked) [Vb-1-42] | 83
CCN1CCCC(N=C(NC(CC(C)C)C2Cc3cccc(O)c3C(=O)O2)C(O)C(O)C(N)CC(=O)O)C1 (centres unmarked) [Vb-1-43] | 83
CC(C)CC(NC(=NCCN1CCOCC1)C(O)C(O)C(N)CC(=O)O)C1Cc2cccc(O)c2C(=O)O1 (centres unmarked) [Vb-1-44] | 94
CC(C)CC(NC(=NCCN1CCCCC1)C(O)C(O)C(N)CC(=O)O)C1Cc2cccc(O)c2C(=O)O1 (centres unmarked) [Vb-1-45] | 94
CCC(=O)OC(C(=N)NC(CC(C)C)C1Cc2cccc(O)c2C(=O)O1)C(O)C(N)CC(=O)O (centres unmarked) [Vb-2-1] | 66
CC(C)CC(NC(=N)C(OC(=O)CCC1CCCC1)C(O)C(N)CC(=O)O)C1Cc2cccc(O)c2C(=O)O1 (centres unmarked) [Vb-2-2] | 56
C/C=C/C(=O)OC(C(=N)NC(CC(C)C)C1Cc2cccc(O)c2C(=O)O1)C(O)C(N)CC(=O)O (centres unmarked) [Vb-2-3] | 66
CC(=O)Oc1cccc2c1C(=O)OC(C(CC(C)C)NC(=N)C(OC(=O)C(C)C)C(O)C(N)CC(=O)O)C2 (centres unmarked) [Vb-3-1] | 56
CC(C)CC(NC(=N)C(O)C(O)C(N)CC(=O)O)C1Cc2cccc(OC(=O)C(C)C)c2C(=O)O1 (centres unmarked) [Vb-4-1] | 78
CCCCCCCCCCCCCCCCCC(=O)Oc1cccc2c1C(=O)OC(C(CC(C)C)NC(=N)C(O)C(O)C(N)CC(=O)O)C2 (centres unmarked) [Vb-4-2] | 56
COC(C)CC(=O)Oc1cccc2c1C(=O)OC(C(CC(C)C)NC(=N)C(O)C(O)C(N)CC(=O)O)C2 (centres unmarked) [Vb-4-3] | 66
CCOc1cccc2c1C(=O)OC(C(CC(C)C)NC(=N)C(O)C(O)C(N)CC(=O)O)C2 (centres unmarked) [Vb-5-1] | 94

Structure (SMILES) | inhibition in vivo at 50 mg/kg [%]
CCCCN=C(NC(CC(C)C)C1Cc2cccc(OCC)c2C(=O)O1)C(O)C(O)C(N)CC(=O)O (centres unmarked) [Vb-5-2] | 89
CCOc1cccc2c1C(=O)OC(C(CC(C)C)NC(=N)C(OC(C)=O)C(O)C(N)CC(=O)O)C2 (centres unmarked) [Vb-6-1] | 66
CCOc1cccc2c1C(=O)OC(C(CC(C)C)NC(=N)C(OC(=O)C(C)C)C(O)C(N)CC(=O)O)C2 (centres unmarked) [Vb-6-2] | 66
CCOc1cccc2c1C(=O)OC(C(CC(C)C)NC(=N)C(OC(=O)CC)C(O)C(N)CC(=O)O)C2 (centres unmarked) [Vb-6-3] | 66
CCCCOC(C(=N)NC(CC(C)C)C1Cc2cccc(OC)c2C(=O)O1)C(O)C(N)CC(=O)O (centres unmarked) [Vb-7-1] | 72
CCCCOc1cccc2c1C(=O)OC(C(CC(C)C)NC(=N)C(OCCCC)C(O)C(N)CC(=O)O)C2 (centres unmarked) [Vb-7-2] | 66
CCCCOC(C(=N)NC(CC(C)C)C1Cc2cccc(OCc3ccccc3)c2C(=O)O1)C(O)C(N)CC(=O)O (centres unmarked) [Vb-7-3] | 56
COC(C(=N)NC(CC(C)C)C1Cc2cccc(O)c2C(=O)O1)C(O)C(N)CC(=O)O (centres unmarked) [Vb-8-1] | 78
CCOC(C(=N)NC(CC(C)C)C1Cc2cccc(O)c2C(=O)O1)C(O)C(N)CC(=O)O (centres unmarked) [Vb-8-3] | 78
COC(C(=N)NC(CC(C)C)C1Cc2cccc(OC(C)=O)c2C(=O)O1)C(O)C(N)CC(=O)O (centres unmarked) [Vb-9-1] | 66
CCCC(=O)Oc1cccc2c1C(=O)OC(C(CC(C)C)NC(=N)C(OCC)C(O)C(N)CC(=O)O)C2 (centres unmarked) [Vb-9-2] | 66
CCOC(C(=N)NC(CC(C)C)C1Cc2cccc(OCCC(C)OC)c2C(=O)O1)C(O)C(N)CC(=O)O (centres unmarked) [Vb-9-3] | 66
CCNC(CC(=O)O)C(O)C(O)C(=N)NC(CC(C)C)C1Cc2cccc(O)c2C(=O)O1 (centres unmarked) [Vb-10-1] | 94
CCCCNC(CC(=O)O)C(O)C(O)C(=N)NC(CC(C)C)C1Cc2cccc(O)c2C(=O)O1 (centres unmarked) [Vb-10-2] | 100
CCCCN=C(NC(CC(C)C)C1Cc2cccc(O)c2C(=O)O1)C(O)C(O)C(CC(=O)O)NCCCC (centres unmarked) [Vb-10-3] | 89
CCNC(CC(=O)O)C(O)C(OC(C)=O)C(=N)NC(CC(C)C)C1Cc2cccc(O)c2C(=O)O1 (centres unmarked) [Vb-11-1] | 78
CC(=O)OC(C(=N)NC(CC(C)C)C1Cc2cccc(O)c2C(=O)O1)C(O)C(CC(=O)O)NCCC(C)C (centres unmarked) [Vb-11-2] | 66
